From US8618289B2 (Ambit Biosciences Corporation, priority 2008, dated 2013)
Structures can show the parent of a compound that is named as a salt. Where two headings read alike, the source gives them in different places.

Legend:
RAF kinases [1] = molecular target: T1, RAF kinases (Homo sapiens, UniProt P15056, V600E); assay: biochemical
A375 cells = assay: cells; conditions: Homo sapiens, A-375, read-out: A375 Viability EC50
Method: The following day, the medium was replaced with 0.5% FBS in M3 for overnight incubation. […] The cells were incubated with compound or control for 72 hours at 37° C. under 10% CO2. Following incubation, Cell Titer Blue reagent (Promega) was added to each well containing compounds or controls, and then incubated for 3 hours at 37° C. under 10% CO2. Proliferation was measured by fluorescence with excitation at 560 nm and emission at 590 nm using SoftMax Pro.

[2] = system: MEK1 phosphorylation in the A375 human melanoma cell line; assay: cells; conditions: A-375, read-out: pMEK IC50
RAF kinases [3] = molecular target: RAF kinases (Homo sapiens, UniProt P15056); assay: biochemical
RAF kinases [4] = molecular target: RAF kinases (Homo sapiens, UniProt P04049); assay: biochemical
RAF kinases [5] = molecular target: T1, RAF kinases; conditions: read-out: BRAF V600E Kd; BRAF V600E

T1 sequence (P15056 whole entry V600E): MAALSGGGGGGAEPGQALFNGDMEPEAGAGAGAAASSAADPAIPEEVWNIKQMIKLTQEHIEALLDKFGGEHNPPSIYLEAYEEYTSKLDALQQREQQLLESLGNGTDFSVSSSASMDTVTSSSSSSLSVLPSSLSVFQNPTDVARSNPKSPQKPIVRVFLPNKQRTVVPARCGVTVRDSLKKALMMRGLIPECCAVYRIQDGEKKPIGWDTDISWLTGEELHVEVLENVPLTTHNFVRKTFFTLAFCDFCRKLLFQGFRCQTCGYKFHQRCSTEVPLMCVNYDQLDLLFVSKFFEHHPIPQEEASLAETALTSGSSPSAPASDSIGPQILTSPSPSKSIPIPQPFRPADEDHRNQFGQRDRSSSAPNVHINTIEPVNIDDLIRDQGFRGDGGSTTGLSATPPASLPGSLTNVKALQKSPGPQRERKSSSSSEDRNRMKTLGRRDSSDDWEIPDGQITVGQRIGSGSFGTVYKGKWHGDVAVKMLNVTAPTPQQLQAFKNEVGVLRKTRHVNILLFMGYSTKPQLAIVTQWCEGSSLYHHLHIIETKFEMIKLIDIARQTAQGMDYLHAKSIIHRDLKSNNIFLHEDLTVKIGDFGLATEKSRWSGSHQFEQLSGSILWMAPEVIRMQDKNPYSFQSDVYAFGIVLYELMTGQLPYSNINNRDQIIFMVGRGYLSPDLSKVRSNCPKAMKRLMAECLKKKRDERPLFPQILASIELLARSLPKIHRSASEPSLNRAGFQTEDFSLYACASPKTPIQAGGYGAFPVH
RAF kinases (Homo sapiens, UniProt P15056), sequence (P15056 whole entry): as the sequence (P15056 whole entry V600E) above, with E600V counted along it
RAF kinases (Homo sapiens, UniProt P04049), sequence (P04049 whole entry): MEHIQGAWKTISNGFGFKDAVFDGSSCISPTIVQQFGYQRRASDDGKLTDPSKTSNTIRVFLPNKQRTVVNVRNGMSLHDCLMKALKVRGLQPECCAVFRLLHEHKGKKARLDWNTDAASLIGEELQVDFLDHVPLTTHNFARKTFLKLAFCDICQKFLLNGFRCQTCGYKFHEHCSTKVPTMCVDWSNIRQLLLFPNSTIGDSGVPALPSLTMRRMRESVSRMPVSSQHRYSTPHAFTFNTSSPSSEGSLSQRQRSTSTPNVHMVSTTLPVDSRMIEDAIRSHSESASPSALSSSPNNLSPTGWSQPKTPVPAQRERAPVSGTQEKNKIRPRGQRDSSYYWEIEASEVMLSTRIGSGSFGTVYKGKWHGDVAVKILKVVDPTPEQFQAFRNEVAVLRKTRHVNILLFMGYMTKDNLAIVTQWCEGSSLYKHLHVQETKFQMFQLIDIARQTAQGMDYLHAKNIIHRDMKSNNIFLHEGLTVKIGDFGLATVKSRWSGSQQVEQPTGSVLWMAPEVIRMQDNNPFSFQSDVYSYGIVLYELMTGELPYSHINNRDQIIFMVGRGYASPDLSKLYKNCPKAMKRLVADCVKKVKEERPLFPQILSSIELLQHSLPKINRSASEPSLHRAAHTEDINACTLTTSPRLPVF

Structure (SMILES)	Kd (RAF kinases [5])	Kd (RAF kinases [1])	EC50 (A375 cells)	IC50 [2]	Kd (RAF kinases [3])	Kd (RAF kinases [4])
COc1cc2ncnc(Oc3cccc(NC(=O)Nc4cc(C(=O)N5CCOCC5)cc(C(F)(F)F)c4)c3)c2cc1OC [Ex 149, 1-(3-(6,7-dimethoxyquinazolin-4-yloxy)phenyl)-3-(3-(morpholine-4-carbonyl)-5-(trifluoromethyl)phenyl)urea]	–	500 to 1000 nM	> 1000 nM	> 1000 nM	–	–
COc1cc2ncnc(Sc3cccc(NC(=O)Nc4cc(C(F)(F)F)nn4-c4ccc(F)cc4)c3)c2cc1OC [Ex 198, 1-[3-(6,7-dimethoxyquinazolin-4-ylthio)phenyl]-3-[1-(4-fluorophenyl)-3-(trifluoromethyl)-1H-pyrazol-5-yl]urea]	–	500 to 1000 nM	500 to 1000 nM	250 to 500 nM	–	–
COc1ccc(-n2nc(C(C)(C)C)cc2NC(=O)Nc2cccc(Oc3ncnc4cc(OC)c(OC)cc34)c2)cc1 [Ex 361, 1-(3-tert-butyl-1-(4-methoxyphenyl)-1H-pyrazol-5-yl)-3-(3-(6,7-dimethoxyquinazolin-4-yloxy)phenyl)urea]	< 250 nM	–	> 1000 nM	< 250 nM	250 to 500 nM	500 to 1000 nM
CCOc1cc2ncnc(Oc3cccc(NC(=O)Nc4cc(C(C)(C)C)on4)c3)c2cc1OCC [Ex 13, 1-(5-tert-butylisoxazol-3-yl)-3-[3-(6,7-diethoxyquinazolin-4-yloxy)phenyl]urea hydrochloride]	–	250 to 500 nM	500 to 1000 nM	250 to 500 nM	–	–
COCCOc1cc2ncnc(Sc3cccc(NC(=O)Nc4cc(C(C)(CF)CF)on4)c3)c2cc1OC [Ex 230, 1-[5-(1,3-difluoro-2-methylpropan-2-yl)isoxazol-3-yl]-3-{3-[6-methoxy-7-(2-methoxyethoxy)quinazolin-4-ylthio]phenyl}urea]	< 250 nM	–	250 to 500 nM	< 250 nM	500 to 1000 nM	250 to 500 nM
COc1cc2ncnc(Oc3cccc(NC(=O)Nc4cc(C(C)(C)C)nn4-c4ccccc4)c3)c2cc1OC [Ex 153, 1-(3-tert-butyl-1-phenyl-1H-pyrazol-5-yl)-3-(3-(6,7-dimethoxyquinazolin-4-yloxy)phenyl)urea]	–	500 to 1000 nM	–	< 250 nM	–	–
COCCOc1cc2ncnc(Sc3cccc(NC(=O)Nc4cc(C(C)(C)C)no4)c3)c2cc1OCCOC [Ex 247, 1-(3-(6,7-bis(2-methoxyethoxy)quinazolin-4-ylthio)phenyl)-3-(3-tert-butylisoxazol-5-yl)urea]	< 250 nM	–	> 1000 nM	< 250 nM	250 to 500 nM	250 to 500 nM
CCOc1cc2c(Oc3cccc(NC(=O)Nc4cc(C(C)(C)C)nn4-c4ccccc4)c3)ncnc2cc1OC [Ex 390, 1-(3-tert-butyl-1-phenyl-1H-pyrazol-5-yl)-3-(3-(6-ethoxy-7-methoxyquinazolin-4-yloxy)phenyl)urea]	< 250 nM	–	–	< 250 nM	250 to 500 nM	500 to 1000 nM
COCCOc1cc2ncnc(Sc3cccc(NC(=O)Nc4cc(C(C)(C)F)no4)c3)c2cc1OC [Ex 234, 1-(3-(2-fluoropropan-2-yl)isoxazol-5-yl)-3-(3-(6-methoxy-7-(2-methoxyethoxy)quinazolin-4-ylthio)phenyl)urea]	< 250 nM	–	> 1000 nM	< 250 nM	250 to 500 nM	250 to 500 nM
CCOc1cc2ncnc(Oc3cccc(NC(=O)Nc4cc(C(F)(F)F)nn4-c4ccccc4)c3)c2cc1OC [Example 384, 1-(3-(7-ethoxy-6-methoxyquinazolin-4-yloxy)phenyl)-3-(1-phenyl-3-(trifluoromethyl)-1H-pyrazol-5-yl)urea]	< 250 nM	–	250 to 500 nM	500 to 1000 nM	500 to 1000 nM	250 to 500 nM
COc1cc2ncnc(Oc3cccc(NC(=O)Nc4cc(C(C)(C)C)on4)c3)c2cc1OCCN1CCS(=O)(=O)CC1 [Ex 91, 1-(5-tert-butyl-isoxazol-3-yl)-3-(3-{6-[2-(1,1-dioxo-thiomorpholin-4-yl)-ethoxy]-7-methoxy-quinazolin-4-yloxy}-phenyl)-urea]	–	–	< 250 nM	< 250 nM	250 to 500 nM	250 to 500 nM
COCCOc1cc2ncnc(Oc3cccc(NC(=O)Nc4cc(C5CCCC5)no4)c3)c2cc1OC [Ex 207, 1-(3-cyclopentylisoxazol-5-yl)-3-(3-(6-methoxy-7-(2-methoxyethoxy)quinazolin-4-yloxy)phenyl)urea]	< 250 nM	–	> 1000 nM	> 1000 nM	500 to 1000 nM	250 to 500 nM
COc1cc2ncnc(Oc3cccc(NC(=O)Nc4cc(C(C)(C)C)on4)c3)c2cc1OC[C@H](O)CN1CCN(C)CC1 [Ex 112, (R)-1-(5-tert-butylisoxazol-3-yl)-3-(3-(6-(2-hydroxy-3-(4-methylpiperazin-1-yl)propoxy)-7-methoxyquinazolin-4-yloxy)phenyl)urea]	–	–	500 to 1000 nM	250 to 500 nM	500 to 1000 nM	250 to 500 nM
COc1cc2ncnc(Sc3cccc(NC(=O)Nc4cc(C(C)(C)C)nn4C)c3)c2cc1OC [Ex 157, 1-(3-tert-butyl-1-methyl-1H-pyrazol-5-yl)-3-(3-(6,7-dimethoxyquinazolin-4-ylthio)phenyl)urea]	–	–	> 1000 nM	< 250 nM	500 to 1000 nM	250 to 500 nM
COc1cc2ncnc(Oc3cccc(NC(=O)Nc4ccc(C(C)(C)C)cc4)c3)c2cc1OC [Ex 173, 1-(4-tert-butylphenyl)-3-(3-(6,7-dimethoxyquinazolin-4-yloxy)phenyl)urea]	–	–	> 1000 nM	250 to 500 nM	500 to 1000 nM	250 to 500 nM
COc1cc2c(Oc3cccc(NC(=O)Nc4cc(C(C)(C)C)on4)c3)ncnc2cc1OCCCN1CCOCC1 [Ex 27, 1-(5-tert-butylisoxazol-3-yl)-3-(3-(6-methoxy-7-(3-morpholinopropoxy)quinazolin-4-yloxy)phenyl)urea]	–	–	< 250 nM	< 250 nM	250 to 500 nM	250 to 500 nM
COc1cc2ncnc(Oc3cccc(NC(=O)Nc4ccc(Cl)c(C(F)(F)F)c4)c3)c2cc1OC [Ex 176, 1-(4-chloro-3-(trifluoromethyl)phenyl)-3-(3-(6,7-dimethoxyquinazolin-4-yloxy)phenyl)urea]	–	–	> 1000 nM	250 to 500 nM	500 to 1000 nM	250 to 500 nM
COc1cc2c(Oc3cccc(NC(=O)Nc4cc(C(C)(C)C)on4)c3)ncnc2cc1OCCN1CCC(CO)CC1 [Ex 37, 1-(5-tert-butyl-isoxazol-3-yl)-3-(3-{7-[2-(4-hydroxymethyl-piperidin-1-yl)-ethoxy]-6-methoxy-quinazolin-4-yloxy}-phenyl)-urea]	–	–	250 to 500 nM	< 250 nM	250 to 500 nM	250 to 500 nM

Further lines, with some results ahead:

Kd (RAF kinases [5])	Structure (SMILES)	Kd (RAF kinases [1])	EC50 (A375 cells)	IC50 [2]	Kd (RAF kinases [3])	Kd (RAF kinases [4])
< 250 nM	COc1cc2ncnc(Oc3cccc(NC(=O)Nc4cc(C(C)(C)C)nn4-c4cnccc4C)c3)c2cc1OC [Ex 303, 1-(3-tert-butyl-1-(4-methylpyridin-3-yl)-1H-pyrazol-5-yl)-3-(3-(6,7-dimethoxyquinazolin-4-yloxy)phenyl)urea]	–	< 250 nM	< 250 nM	500 to 1000 nM	250 to 500 nM
< 250 nM	COc1cc2ncnc(Sc3cccc(NC(=O)Nc4ccc(OC)c(C(F)(F)F)c4)c3)c2cc1OCCCN1CCS(=O)(=O)CC1 [Ex 246, 1-(4-methoxy-3-(trifluoromethyl)phenyl)-3-(3-(7-methoxy-6-(3-(4,4-dioxothiomorpholino)propoxy)quinazolin-4-ylthio)phenyl)urea]	–	500 to 1000 nM	< 250 nM	250 to 500 nM	250 to 500 nM
< 250 nM	COCCOc1cc2ncnc(Oc3cccc(NC(=O)Nc4cc(C(C)C)no4)c3)c2cc1OC [Ex 215, 1-(3-isopropylisoxazol-5-yl)-3-(3-(6-methoxy-7-(2-methoxyethoxy)quinazolin-4-yloxy)phenyl)urea]	–	> 1000 nM	500 to 1000 nM	250 to 500 nM	250 to 500 nM
< 250 nM	COc1cc2ncnc(Oc3cccc(NC(=O)Nc4cc(C(F)(F)F)nn4-c4ccccc4)c3C)c2cc1OC [Ex 291, 1-(3-(6,7-Dimethoxyquinazolin-4-yloxy)-2-methylphenyl)-3-(1-phenyl-3-(trifluoromethyl)-1H-pyrazol-5-yl)urea]	–	> 1000 nM	500 to 1000 nM	500 to 1000 nM	250 to 500 nM
< 250 nM	COc1cc2ncnc(Oc3cccc(NC(=O)Nc4cnn(C(C)(C)C)c4)c3)c2cc1OC [Ex 252, 1-(1-tert-butyl-1H-pyrazol-4-yl)-3-(3-(6,7-dimethoxyquinazolin-4-yloxy)phenyl)urea]	–	> 1000 nM	> 1000 nM	250 to 500 nM	250 to 500 nM
< 250 nM	COc1cc2c(Oc3cccc(NC(=O)Nc4cc(C(F)(F)F)nn4-c4ccccc4)c3)ncnc2cc1OCCN1CCOCC1 [Ex 396, 1-(3-(6-Methoxy-7-(2-morpholinoethoxy)quinazolin-4-yloxy)phenyl)-3-(1-phenyl-3-(trifluoromethyl)-1H-pyrazol-5-yl)urea]	–	500 to 1000 nM	500 to 1000 nM	500 to 1000 nM	500 to 1000 nM
< 250 nM	COc1cc2ncnc(Oc3cccc(NC(=O)Nc4cc(C(C)(C)C)nn4-c4ccccc4F)c3)c2cc1OC [Ex 372, 1-(3-tert-butyl-1-(2-fluorophenyl)-1H-pyrazol-5-yl)-3-(3-(6,7-dimethoxyquinazolin-4-yloxy)phenyl)urea]	–	–	< 250 nM	500 to 1000 nM	500 to 1000 nM
< 250 nM	CCOc1cc2ncnc(Oc3cccc(NC(=O)Nc4cc(C(C)(C)C)nn4-c4ccccc4)c3)c2cc1OC [Ex 387, 1-(3-tert-butyl-1-phenyl-1H-pyrazol-5-yl)-3-(3-(7-ethoxy-6-methoxyquinazolin-4-yloxy)phenyl)urea]	–	–	< 250 nM	500 to 1000 nM	500 to 1000 nM
